Assay: Human HepG2 cell viability assay in 384 well format
Type: toxicity, cell-based
Design: dose 125 nL, time 70.5 hour; concentration not given beside the values
Settings: HepG2 cells, read-out: Inhibition

SMILES | cytotoxicity at 70.5 h [%]
COc1ccc(OCc2nc3cc4c(cc3c(=O)o2)OCCCO4)cc1 | -5.23
CSCCC(NC(N)=O)C(=O)NCc1ccc(-n2cccn2)cc1 (stereo not drawn) | -6.9
CN(C)c1nc(N)nc(CN2CCC(c3ccccc3)CC2)n1 | -10.6
Cc1cc(CN(CC(N)=O)CC(C)C)on1 | 18.1
CC(C(=O)NC1(C#N)CCCCC1)N1CCc2c(ncn2C)C1 (stereo not drawn) | -3.36
CC(C)(C)NC(=O)C1CCCCN1Cc1nccn1CC(F)(F)F (stereo not drawn) | -0.987
CC(C)(C)c1cc(=O)[nH]c(C2(N)CCCC2)n1 | 14.1
COc1ccccc1N1CCCC(NC(=O)Nc2cccnc2)C1 (stereo not drawn) | 8.99
COc1c(F)cc(NC(=O)N2CCC(CSC)C2)cc1F (stereo not drawn) | 16.5
COC(CNC(=O)CNC(=O)c1ccccc1)c1cccc(Cl)c1 (stereo not drawn) | -2.92
CC(Cc1cccc(F)c1)C(=O)NS(=O)(=O)c1ccc2c(c1)OCCO2 (stereo not drawn) | 19.6
Cc1cc(CNC2(CO)CCOCC2)ccc1Br | -0.894
CC(C)c1ccc(/C=C/CC(=O)NC2CCN(C(N)=O)C2)cc1 (stereo not drawn) | 9
CC(C)c1ccc(/C=C/CC(=O)NC2CCS(=O)(=O)CC2)cc1 | -1.79
CCN(CC)C1CCN(C(=O)Nc2cc(F)c(OC)c(F)c2)C1 (stereo not drawn) | 1.91
Cc1nnc(CN(C)CC(=O)N2CCCC(C)CC2)n1C (stereo not drawn) | -8.63
O=C(NC1CCN(c2ccccc2OC(F)F)C1)c1cccnc1 (stereo not drawn) | -4.78
O=S(=O)(CCCN1CCc2c(ncn2C2CC2)C1)c1ccccc1 | 1.18
CN(CCCOc1ccc(F)cc1)S(=O)(=O)c1cnn(C)c1 | -8.61
CN(CCCOc1ccccc1)S(=O)(=O)c1cnn(C)c1 | 21.2

SMILES | cytotoxicity at 70.5 h [%]
Cc1ccc(OCCN(C)S(=O)(=O)c2cnn(C)c2)cc1 | -4.35
NC(=O)NC(=O)C(c1ccccc1)N1CCN(Cc2ccccc2)CC1 (stereo not drawn) | 1.22
COCCNC(=O)CCNc1cc(C)nc(-c2ccncc2)n1 | -15.7
Cc1cc(NCCC(=O)NC2CCCC2)nc(-c2ccncc2)n1 | 0.777
CC(C)N1CCCC(CNC(=O)c2ccnc(-n3ccnc3)c2)C1 (stereo not drawn) | -4.35
Cc1ccc2c(c1)CCC2NC(=O)N1CCC(C(N)=O)CC1 (stereo not drawn) | -6.61
Cc1cc(NCCC(=O)NC2CCS(=O)(=O)C2)nc(-c2ccncc2)n1 (stereo not drawn) | -8.91
CN(CCNC(=O)c1ccnc(-n2ccnc2)c1)C1CC1 | -1.87
CC(NC(=O)NCC(F)(F)F)c1nncn1C (stereo not drawn) | 29.7
CS(=O)(=O)CCN1CCc2c(ncn2C2CC2)C1 | -3.42
CN(C)CCOc1ccc(N(C)S(=O)(=O)c2cnn(C)c2)cc1 | -1.43
c1ccc(C2(CNCc3cnc(N4CCOCC4)nc3)CC2)cc1 | -8.71
Cc1cc(C(=O)N(CCN(C)C)Cc2ccc(Cl)cc2)no1 | -0.353
Cc1ccc(CNc2ccccc2-n2ccc(C)n2)nc1 | 8.61
CC(C)CC(=O)NCCCc1cc(N)n(-c2ccccc2)n1 | 4.65
CC(CNC(=O)NCCCc1cc(N)n(-c2ccccc2)n1)N(C)C (stereo not drawn) | -8.44
CCc1nc(CN2CCCC(N(C)Cc3nc(C)c(C)o3)C2)no1 (stereo not drawn) | -74.1
CCc1nc(CN2CCCC(N(C)Cc3cnc(C)cn3)C2)no1 (stereo not drawn) | -71.2
Cc1nc(CCNC(=O)C2CC(=O)N(C(C)C)C2)cs1 (stereo not drawn) | 32.3
CCSc1cc(C(=O)NCCNC(=O)Cc2ccccc2)ccn1 | -117

SMILES | cytotoxicity at 70.5 h [%]
CCCc1cc(NC2CCc3nc(CC)nn3C2)n2ncnc2n1 (stereo not drawn) | -100
Cc1nc(C)n(CC2CCCN2Cc2coc(-c3cccs3)n2)n1 (stereo not drawn) | -115
Cc1ccc(-c2nc(CCNC(=O)C3CC(=O)N(C)C3)cs2)cc1 (stereo not drawn) | -98.5
CCCc1cc(NC2CCc3nc(C(C)C)nn3C2)n2ncnc2n1 (stereo not drawn) | -104
c1csc(-c2nc(CN3CCCC3Cn3cccn3)co2)c1 (stereo not drawn) | -75.5
Cc1cnn(CC2CCCN2Cc2coc(-c3cccc(F)c3)n2)c1 (stereo not drawn) | -113
CCS(=O)(=O)CCCOc1nc(-c2ccccc2Cl)no1 | -96.6
O=C1CCC(=O)N1CCOc1nc(-c2ccccc2Cl)no1 | -77.6
Cc1n[nH]c(C2CN(CC(=O)NCc3sccc3C)CCO2)n1 (stereo not drawn) | -93.4
O=C(NS(=O)(=O)c1cc(Cl)ccc1Cl)c1cccc2c1OCCO2 | 58.5
O=C(NS(=O)(=O)c1ccc(Cl)cc1F)c1cccc2c1OCCO2 | -108
CCSc1cc(C(=O)NCCNC(=O)N(C)C)ccn1 | -76.6
Cc1cc(C(=O)N2CCN(S(C)(=O)=O)[C@@H](C)C2)c(F)cc1F | -97.9
Cc1cc(NC2CCc3ncnn3C2)n2nc(C(F)(F)F)nc2n1 (stereo not drawn) | -95.5
Cc1ccc(F)cc1C(=O)N1CCN(S(C)(=O)=O)[C@@H](C)C1 | -82.4
CN(Cc1ccc(N2CCOCC2)cc1)Cc1noc(C(C)(C)C)n1 | 7.66
COCCc1noc(CN2CCCC2c2noc(C3CC3)n2)n1 (stereo not drawn) | -1.05
NC1(c2nc(C(F)(F)F)cc(=O)[nH]2)CCCC1 | 21.9

From ChEMBL document CHEMBL3507680, “University of Dundee, Gates Library screen for HepG2 cell viability”
